Data on 11 compounds can be found in article PMC4010550, “Imidazol-1-ylethylindazole Voltage-Gated Sodium Channel Ligands Are Neuroprotective during Optic Neuritis in a Mouse Model of Multiple Sclerosis” (Journal of Medicinal Chemistry, 2014).

Assay [1] has as its system rat hippocampal slices. Description: in vitro neuroprotection assay, hippocampal slices under oxygen-glucose deprivation, ATP levels. The settings on record: for Emax at 50 µM: Rattus norvegicus. In kind it is cell-based.
The target of another assay is hNav1.8/β3 (Homo sapiens, UniProt Q9Y5Y9). Briefly: automated patch-clamp Nav isoform screening. In kind it is cell-based. The settings on record: Nav1.8. On the technique in general: In patch-clamp work, channel activity is measured electrically.
For the next assay, the target named is hNav1.3 (Homo sapiens, UniProt Q9NY46). Briefly: automated patch-clamp Nav isoform screening. The settings on record: Nav1.3. In kind it is cell-based.
The target in a further assay is hNav1.1 (Homo sapiens, UniProt P35498). Briefly: automated patch-clamp Nav isoform screening. In kind it is cell-based. The settings on record: Nav1.1.
In assay [2] the test system is T-cell proliferation to oxazolone in lymphnodes. Description: contact hypersensitivity model / in vivo local lymph node assay (T-cell immunosuppressive activity). Conditions: mouse, 5–50 mg/kg i.p. day −1 to day 2, oxazolone sensitization day 0, read day 3.
The target in the next assay is hNav1.7 (Homo sapiens, UniProt Q15858). Briefly: automated patch-clamp Nav isoform screening. It is filed as cell-based. Conditions: Nav1.7.
The target in a further assay is hNav1.4 (Homo sapiens, UniProt P35499). Briefly: automated patch-clamp Nav isoform screening. In kind it is cell-based. Conditions: Nav1.4.
Another assay deals with hNav1.5 (Homo sapiens, UniProt Q14524). Description: automated patch-clamp Nav isoform screening. In kind it is cell-based. The settings on record: Nav1.5.
Sequence of hNav1.5 (Q14524 whole entry, canonical isoform): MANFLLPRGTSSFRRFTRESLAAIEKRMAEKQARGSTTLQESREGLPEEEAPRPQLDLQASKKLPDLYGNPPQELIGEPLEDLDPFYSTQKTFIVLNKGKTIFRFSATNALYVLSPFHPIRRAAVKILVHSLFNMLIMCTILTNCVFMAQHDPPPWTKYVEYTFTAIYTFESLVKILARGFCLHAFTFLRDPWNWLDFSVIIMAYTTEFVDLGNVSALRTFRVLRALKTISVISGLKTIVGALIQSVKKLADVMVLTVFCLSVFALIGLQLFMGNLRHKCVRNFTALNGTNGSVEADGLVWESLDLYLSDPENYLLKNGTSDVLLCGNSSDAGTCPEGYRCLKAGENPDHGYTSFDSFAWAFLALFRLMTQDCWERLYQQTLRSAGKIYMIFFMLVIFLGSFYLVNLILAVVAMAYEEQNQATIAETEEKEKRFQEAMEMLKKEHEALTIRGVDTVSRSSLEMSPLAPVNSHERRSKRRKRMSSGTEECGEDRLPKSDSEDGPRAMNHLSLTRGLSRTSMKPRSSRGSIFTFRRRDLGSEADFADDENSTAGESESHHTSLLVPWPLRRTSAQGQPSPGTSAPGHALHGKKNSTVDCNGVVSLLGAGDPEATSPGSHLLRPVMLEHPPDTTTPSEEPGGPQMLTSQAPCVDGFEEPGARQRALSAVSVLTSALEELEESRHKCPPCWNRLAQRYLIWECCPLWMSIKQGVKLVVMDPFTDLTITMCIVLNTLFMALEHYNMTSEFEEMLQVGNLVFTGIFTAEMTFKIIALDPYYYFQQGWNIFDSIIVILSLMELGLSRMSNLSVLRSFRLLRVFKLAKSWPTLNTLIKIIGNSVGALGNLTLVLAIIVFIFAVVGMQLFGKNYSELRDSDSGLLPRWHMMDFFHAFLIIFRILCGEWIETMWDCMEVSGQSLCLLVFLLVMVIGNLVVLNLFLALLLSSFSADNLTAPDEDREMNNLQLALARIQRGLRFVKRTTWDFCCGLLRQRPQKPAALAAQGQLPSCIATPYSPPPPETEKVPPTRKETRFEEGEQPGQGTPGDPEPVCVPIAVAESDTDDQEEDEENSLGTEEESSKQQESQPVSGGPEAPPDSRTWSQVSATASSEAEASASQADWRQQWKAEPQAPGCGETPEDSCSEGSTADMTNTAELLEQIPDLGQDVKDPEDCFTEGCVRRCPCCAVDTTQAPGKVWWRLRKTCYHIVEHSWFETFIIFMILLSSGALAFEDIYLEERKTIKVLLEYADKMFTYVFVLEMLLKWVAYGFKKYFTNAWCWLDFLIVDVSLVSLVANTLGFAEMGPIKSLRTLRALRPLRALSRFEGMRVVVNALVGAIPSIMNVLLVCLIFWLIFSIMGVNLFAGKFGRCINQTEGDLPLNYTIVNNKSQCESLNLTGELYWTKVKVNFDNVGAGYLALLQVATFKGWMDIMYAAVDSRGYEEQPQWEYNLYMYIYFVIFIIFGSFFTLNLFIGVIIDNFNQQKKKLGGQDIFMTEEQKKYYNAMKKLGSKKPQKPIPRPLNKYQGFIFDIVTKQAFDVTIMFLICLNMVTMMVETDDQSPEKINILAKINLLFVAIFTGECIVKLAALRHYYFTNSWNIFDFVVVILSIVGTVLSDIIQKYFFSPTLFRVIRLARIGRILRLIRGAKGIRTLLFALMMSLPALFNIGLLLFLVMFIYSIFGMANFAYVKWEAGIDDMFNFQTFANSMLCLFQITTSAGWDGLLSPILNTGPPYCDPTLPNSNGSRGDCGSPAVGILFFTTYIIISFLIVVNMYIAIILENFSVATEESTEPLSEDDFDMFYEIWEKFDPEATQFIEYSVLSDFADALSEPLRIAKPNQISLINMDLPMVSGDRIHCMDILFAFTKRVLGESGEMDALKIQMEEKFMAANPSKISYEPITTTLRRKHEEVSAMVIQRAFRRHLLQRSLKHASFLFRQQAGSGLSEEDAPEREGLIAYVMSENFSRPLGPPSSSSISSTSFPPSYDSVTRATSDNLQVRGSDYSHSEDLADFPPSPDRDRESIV
Another assay concerns the target hNav1.6 (Homo sapiens, UniProt Q9UQD0). Briefly: automated patch-clamp Nav isoform screening. Conditions: Nav1.6. In kind it is cell-based.
Another assay concerns the target hNav1.2 (Homo sapiens, UniProt Q99250). Briefly: automated patch-clamp Nav isoform screening. In kind it is cell-based. The settings on record: Nav1.2.
Assay [3] concerns rat hippocampal slices. Set-up: method as in PMID 19341281. The settings on record: reported previously; cited from earlier work.
The subject of another assay is sodium channels. Set-up: method as in PMID 19341281. The settings on record: reported previously / values reported in literature; read-out: [3H]sipatrigine binding, IC50; cited from earlier work.
[4] abbreviates: normalized to the effect of TTX.

Read-outs that look alike come from different tables or passages of the source. Marks after values point to notes of the source that are not given here.

Sequence of hNav1.2 (Q99250 whole entry, canonical isoform): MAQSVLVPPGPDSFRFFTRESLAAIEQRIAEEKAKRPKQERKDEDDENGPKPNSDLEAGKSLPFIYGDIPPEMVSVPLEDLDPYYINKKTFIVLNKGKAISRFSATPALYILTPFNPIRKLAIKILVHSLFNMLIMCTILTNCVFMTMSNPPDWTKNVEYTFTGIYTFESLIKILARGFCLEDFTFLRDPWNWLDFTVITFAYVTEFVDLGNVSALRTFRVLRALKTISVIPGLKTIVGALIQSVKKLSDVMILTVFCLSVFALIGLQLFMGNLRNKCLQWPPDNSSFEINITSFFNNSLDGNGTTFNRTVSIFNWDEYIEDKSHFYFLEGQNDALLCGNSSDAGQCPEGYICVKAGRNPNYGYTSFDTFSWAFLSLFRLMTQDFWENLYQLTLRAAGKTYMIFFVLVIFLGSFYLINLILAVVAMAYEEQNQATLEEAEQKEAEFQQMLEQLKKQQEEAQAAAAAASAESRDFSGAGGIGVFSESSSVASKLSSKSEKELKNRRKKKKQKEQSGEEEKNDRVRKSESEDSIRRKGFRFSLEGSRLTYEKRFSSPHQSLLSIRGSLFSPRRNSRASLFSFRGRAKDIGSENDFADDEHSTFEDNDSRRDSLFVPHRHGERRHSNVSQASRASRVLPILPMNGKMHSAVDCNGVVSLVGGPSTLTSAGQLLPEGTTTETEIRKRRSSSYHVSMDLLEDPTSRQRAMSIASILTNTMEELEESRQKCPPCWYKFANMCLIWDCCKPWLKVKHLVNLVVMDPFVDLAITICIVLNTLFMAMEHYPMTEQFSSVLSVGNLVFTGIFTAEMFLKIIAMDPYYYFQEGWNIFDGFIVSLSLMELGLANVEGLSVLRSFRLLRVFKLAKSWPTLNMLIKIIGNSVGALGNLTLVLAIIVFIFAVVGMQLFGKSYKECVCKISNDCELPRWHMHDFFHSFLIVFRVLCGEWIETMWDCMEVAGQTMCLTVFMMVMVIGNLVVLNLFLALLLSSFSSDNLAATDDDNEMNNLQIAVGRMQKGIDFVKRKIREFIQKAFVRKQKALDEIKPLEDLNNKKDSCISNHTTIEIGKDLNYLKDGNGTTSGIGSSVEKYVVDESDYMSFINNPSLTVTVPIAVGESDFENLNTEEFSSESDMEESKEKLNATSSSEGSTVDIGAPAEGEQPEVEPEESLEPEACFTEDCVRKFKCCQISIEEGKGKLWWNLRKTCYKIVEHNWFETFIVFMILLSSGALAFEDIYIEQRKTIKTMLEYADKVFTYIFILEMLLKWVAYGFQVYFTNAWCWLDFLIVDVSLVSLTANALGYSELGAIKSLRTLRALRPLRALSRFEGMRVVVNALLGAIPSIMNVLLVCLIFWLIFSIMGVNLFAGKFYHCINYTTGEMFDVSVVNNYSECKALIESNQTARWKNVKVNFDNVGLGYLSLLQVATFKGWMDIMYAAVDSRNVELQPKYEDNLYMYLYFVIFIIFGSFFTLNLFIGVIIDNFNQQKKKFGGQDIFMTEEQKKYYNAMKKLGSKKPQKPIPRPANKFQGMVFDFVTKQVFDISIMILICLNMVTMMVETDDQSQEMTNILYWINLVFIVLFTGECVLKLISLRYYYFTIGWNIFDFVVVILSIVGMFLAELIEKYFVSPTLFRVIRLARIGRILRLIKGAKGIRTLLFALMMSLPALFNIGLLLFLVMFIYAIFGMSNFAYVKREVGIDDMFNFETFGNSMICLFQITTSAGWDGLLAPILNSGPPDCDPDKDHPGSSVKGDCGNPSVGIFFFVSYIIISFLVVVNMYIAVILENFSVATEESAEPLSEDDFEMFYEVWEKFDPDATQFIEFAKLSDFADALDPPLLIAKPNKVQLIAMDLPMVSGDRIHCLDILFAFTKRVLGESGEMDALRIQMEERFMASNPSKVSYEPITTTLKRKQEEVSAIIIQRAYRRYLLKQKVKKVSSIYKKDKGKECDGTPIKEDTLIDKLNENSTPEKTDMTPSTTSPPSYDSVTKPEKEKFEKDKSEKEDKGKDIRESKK

As a reminder, the Emax is the greatest response seen or fitted, relative to the assay's reference. In the case of `O=C(NCc1noc(-c2nn(CCn3ccnc3)c3ccccc23)n1)c1ccccc1` [compound 6, N-[[5-[1-(2-Imidazol-1-ylethyl)indazol-3-yl]-1,2,4-oxadiazol-3-yl]methyl]benzamide], the Emax at 50 µM with rat hippocampal slices [1] (setting [4]) was determined as 46%. The “inactivated-state block (c) n (slope of the fit)” value was determined as 1.42 ± 0.1 at hNav1.8/β3; 0.78 ± 0.15 at hNav1.3; 1.71 ± 0.73 at hNav1.1; 2.24 ± 0.17 at hNav1.7; 1.43 ± 0.27 at hNav1.4; 0.99 ± 0.22 on hNav1.5. In addition, the “inactivated-state block (c) n (slope of the fit)” value at hNav1.6 is on record as 2.45 ± 2.59; on hNav1.2, 1.48 ± 0.38. Moreover, the “T-cell immunosuppressive activity (inhibitory effect of sensitization; lymph node cell numbers, per cell proliferative response)” value in assay [2] was “no evidence suggestive of any inhibitory effect of sensitization”. Moreover, the “tonic block (a) n (slope of the fit)” value was determined as 2.09 ± 1.73 on hNav1.7 and 1.12 ± 0.51 on hNav1.2. Also, the “10 Hz block (b) n (slope of the fit)” value amounted to 1.21 ± 0.36 on hNav1.4, 1.16 ± 0.54 on hNav1.5 and 1.82 ± 0.73 at hNav1.2.

By IC50 is commonly meant the concentration at which inhibition is half-maximal. As to `CC(C)(C)OC(=O)NCc1noc(-c2nn(Cc3ccccc3)c3ccccc23)n1` [compound 14], the “neuroprotection at 50 μM” value in the assay with rat hippocampal slices [3] is reported as 19 ^e %. Further, the concentration for half-maximal inhibition (IC50) in the assay with sodium channels was 8.3 µM.

With `CC(C)(C)OC(=O)NCc1noc(-c2c3ccccc3nn2Cc2ccccc2)n1` [compound 15], in the assay with rat hippocampal slices [3], the “neuroprotection at 50 μM” value is 25 ^e %. Besides, the concentration for half-maximal inhibition (IC50) in the assay on sodium channels is 5.5 µM.

In the case of `NCc1noc(-c2nn(Cc3ccccc3)c3ccccc23)n1` [compound 24], the half-inhibitory concentration (IC50) with sodium channels is 3.3 ± 0.6 µM.

Consider `NCc1noc(-c2c3ccccc3nn2Cc2ccccc2)n1` [compound 25], for which the IC50 with sodium channels was 7 ± 2.8 µM.

`O=C(NCc1noc(-c2c3ccccc3nn2CCn2ccnc2)n1)c1ccccc1` [compound 34]: the Emax at 50 µM in the assay on rat hippocampal slices [1] (setting [4]) stood at 41 ± 9.4%.

In the assay with rat hippocampal slices [1] (setting [4]), `COc1cccc(C(=O)NCc2noc(-c3nn(CCn4ccnc4)c4ccccc34)n2)c1OC` [compound 41] came in with a maximal response (Emax) at 50 µM of 71%.

Regarding `O=C(NCc1noc(-c2c3ccccc3nn2CCn2ccnc2)n1)c1cccc(OC(F)(F)F)c1` [compound 51], the “10 Hz block (b) n (slope of the fit)” value turned out to be 2.62 ± 1.05 on hNav1.8/β3; 0.35 ± 0.19 at hNav1.3; 1.32 ± 0.16 on hNav1.1; 2.63 ± 0.33 on hNav1.7; 1.34 ± 0.13 on hNav1.4; 0.37 ± 0.13 on hNav1.5. In addition, the “10 Hz block (b) n (slope of the fit)” value on hNav1.6 was determined as 0.42 ± 0.19; on hNav1.2, 0.63 ± 0.14. The “inactivated-state block (c) n (slope of the fit)” value on hNav1.8/β3 worked out at 2.75 ± 0.66; at hNav1.3 it was 0.96 ± 0.19; at hNav1.1 it was 2.09 ± 0.32; on hNav1.7 it was 2.5 ± 0.1; on hNav1.4, 1.75 ± 0.12; on hNav1.5, 0.49 ± 0.15. In addition, the “inactivated-state block (c) n (slope of the fit)” value at hNav1.6 is listed as 1.17 ± 0.18; at hNav1.2, 0.6 ± 0.12. For the same compound, the “tonic block (a) n (slope of the fit)” value on hNav1.8/β3 is given as 2.14 ± 0.51; at hNav1.1, 1.09 ± 0.24; at hNav1.7 it was 2.59 ± 0.41; on hNav1.4, 1.23 ± 0.18; at hNav1.5, 0.76 ± 0.23; on hNav1.2 it was 0.48 ± 0.14.

In the case of `Nc1nnc(-c2cccc(Cl)c2Cl)c(N)n1` [lamotrigine, reference compound], the neuroprotection in the assay with rat hippocampal slices [1] (tested at 30 μM, normalized to the effect of TTX) is reported as 33 ^b %. In the assay on sodium channels, the 50% inhibitory concentration (IC50) is 1.8 ± 0.2 µM.

With `CN1CCN(c2ncc(-c3cc(Cl)cc(Cl)c3Cl)c(N)n2)CC1` [sipatrigine, reference compound], in the assay with rat hippocampal slices [1] (tested at 3 μM), the neuroprotection is recorded as 93 ^d %. In addition, in the assay on sodium channels, the IC50 is 0.04 ± 0.001 µM.

Turning to `NC1=N[C@H](O)[C@H]2[C@H]3O[C@]4(O)O[C@@H]([C@@H](O)[C@@]2(N1)[C@@H]4O)[C@]3(O)CO` [tetrodotoxin, reference compound], the neuroprotection in the assay on rat hippocampal slices [1] is 100 ^c %.
